Laboratory results taken from patent publication US10793563B2, “GCN2 inhibitors and uses thereof” (Merck Patent GmbH, priority 2018, dated 2020).

Experiments:
GCN2 kinase = GCN2 kinase (Homo sapiens (Human), UniProt Q9P2K8); experiment: GCN2 Enzyme Inhibition Assay (Transcreener ADP2 fluorescence polarization); type: biochemical; conditions: 280 μM ATP, 200 μM (RS)7 peptide, 4 nM GCN2, 25° C.
Procedure, shortened: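 Transcreener ADP2 fluorescence polarization detection of ADP from 4 nM GCN2 with (RS)7 substrate in 25 mM Tris-HCl pH 7.5, 50 mM NaCl, 10 mM MgCl2, 1 mM DTT. Compound pre-incubated with enzyme 10 min at 25 °C; reaction started by ATP, run 1 h at 25 °C. IC50 and Ki(app) by tight-binding fit.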

[1] = system: primary human pan T-cells; experiment: Human IL-2 Assay for GCN2 Inhibition (IL-2 secretion from T cells in low amino acid condition); type: cell-based; conditions: IL-2 secretion from human T cells stimulated with anti-CD3/CD28 in low amino acid condition; 96 hours; ELISA
Procedure, shortened: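 Pan T-cells (5×10^4/well) in RPMI lacking one amino acid (e.g. Trp, Arg) with 10% charcoal-stripped FBS; that amino acid titrated from none to 20 μM Trp or 950 μM Arg. Compound given 30 min at 37 °C before anti-CD3/CD28 bead stimulation; supernatant IL-2 by ELISA after 96 h; EC50 calculated.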

[2] = molecular target: intracellular GCN2 (phosphorylation of the GCN2 substrate eIF2α) (Homo sapiens (Human), UniProt Q9P2K8); experiment: GCN2 Cellular Inhibition Assay (AlphaScreen SureFire P-eIF2α Ser51, borrelidin-treated U2OS cells); type: cell-based; conditions: 10 μM borrelidin, 1 h, phosphorylated eIF2α Ser51, read-out: GCN2 Biomarker (IC50)
Sequence of intracellular GCN2 (phosphorylation of the GCN2 substrate eIF2α) (Q9P2K8 whole entry): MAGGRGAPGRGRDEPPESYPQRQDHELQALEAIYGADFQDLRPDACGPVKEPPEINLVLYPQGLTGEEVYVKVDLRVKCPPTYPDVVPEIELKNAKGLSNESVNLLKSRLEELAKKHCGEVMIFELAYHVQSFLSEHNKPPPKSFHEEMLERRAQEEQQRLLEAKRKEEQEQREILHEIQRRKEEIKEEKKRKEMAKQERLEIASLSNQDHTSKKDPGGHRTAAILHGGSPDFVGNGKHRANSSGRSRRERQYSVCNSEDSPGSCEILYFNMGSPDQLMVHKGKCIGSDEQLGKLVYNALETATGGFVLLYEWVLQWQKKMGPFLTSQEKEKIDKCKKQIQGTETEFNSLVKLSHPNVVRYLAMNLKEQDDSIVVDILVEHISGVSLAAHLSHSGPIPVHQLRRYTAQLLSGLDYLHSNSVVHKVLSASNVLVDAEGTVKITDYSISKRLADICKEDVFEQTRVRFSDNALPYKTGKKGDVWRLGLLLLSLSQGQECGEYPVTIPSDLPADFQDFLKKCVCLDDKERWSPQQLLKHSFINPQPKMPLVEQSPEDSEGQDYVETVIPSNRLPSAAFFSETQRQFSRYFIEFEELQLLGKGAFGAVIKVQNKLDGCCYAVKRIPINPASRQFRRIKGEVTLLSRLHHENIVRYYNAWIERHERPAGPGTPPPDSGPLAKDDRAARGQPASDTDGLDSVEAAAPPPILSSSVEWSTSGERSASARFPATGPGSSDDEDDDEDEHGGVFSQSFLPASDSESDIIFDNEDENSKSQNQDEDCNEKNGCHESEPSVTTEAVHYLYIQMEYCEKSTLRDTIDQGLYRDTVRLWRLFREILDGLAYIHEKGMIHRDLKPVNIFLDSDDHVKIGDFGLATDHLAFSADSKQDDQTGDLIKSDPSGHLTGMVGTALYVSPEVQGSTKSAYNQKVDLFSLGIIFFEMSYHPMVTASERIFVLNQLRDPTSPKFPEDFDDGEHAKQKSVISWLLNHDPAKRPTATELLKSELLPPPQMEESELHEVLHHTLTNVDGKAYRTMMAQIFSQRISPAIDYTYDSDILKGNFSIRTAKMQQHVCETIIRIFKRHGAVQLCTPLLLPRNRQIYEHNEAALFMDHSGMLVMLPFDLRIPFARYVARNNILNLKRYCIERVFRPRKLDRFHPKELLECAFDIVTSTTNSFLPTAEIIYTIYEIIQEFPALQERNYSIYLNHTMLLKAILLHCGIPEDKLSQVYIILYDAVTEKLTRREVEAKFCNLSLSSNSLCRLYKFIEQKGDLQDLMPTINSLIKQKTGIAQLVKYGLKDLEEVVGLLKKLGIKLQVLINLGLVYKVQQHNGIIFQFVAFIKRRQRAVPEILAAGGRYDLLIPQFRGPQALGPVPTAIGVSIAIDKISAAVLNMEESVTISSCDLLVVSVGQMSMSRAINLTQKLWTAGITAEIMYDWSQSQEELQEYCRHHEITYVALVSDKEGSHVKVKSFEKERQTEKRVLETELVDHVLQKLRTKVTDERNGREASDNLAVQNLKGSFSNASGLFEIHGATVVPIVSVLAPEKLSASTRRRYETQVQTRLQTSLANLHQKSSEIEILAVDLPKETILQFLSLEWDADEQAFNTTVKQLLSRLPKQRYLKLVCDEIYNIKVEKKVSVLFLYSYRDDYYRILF
Procedure, shortened: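 U2OS cells adhered overnight, then given compound (top 40 μM, 4-fold serial dilutions) plus 10 μM borrelidin for 1 h at 37 °C. Lysates assayed for eIF2α phospho-Ser51 by AlphaScreen SureFire; % inhibition versus borrelidin-only wells.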

Sequence of GCN2 kinase (Q9P2K8 whole entry): as above

IC50 (GCN2 kinase): 10 to 100 nM
IL2/T-cell EC50 [1]: − (“−” for not active)
IC50 [2]: < 500 nM
SMILES: C[C@H]1C[C@@H](c2cn[nH]c2)CN(c2nccc(-c3cnc4ccc(C5CC5)cn34)n2)C1 [I-250, 6-Cyclopropyl-3-{2-[(3 S,5S)-3-methyl-5-(1H-pyrazol-4-yl)-piperidin-1-yl]-pyrimidin-4-yl}-imidazo[1,2-a]pyridine]
